In patent publication US20070122802A1, “Methods of diagnosing and treating diabetes and insulin resistance” (priority 2002, published 2007):

Tests used:
Type in all cases: in vivo, human
[1] = test system: HIOMT; experiment: Gene expression profiling (Affymetrix chips) of muscle from diabetics before/after troglitazone: HIOMT transcripts; conditions: HIOMT mRNA, Basal sample
Text: (§1) The molecular mechanism by which thiazolidinediones (TZDs) cause an increase in peripheral insulin sensitivity was studied. Genes in muscle or fat whose expression is altered by TZDs may lie on a pathway leading from TZD treatment to increased insulin sensitivity. Modulators of such genes can elicit the same effect as TZD treatment. Moreover, such modulators can lack some of the side effects of TZD. The majority of glucose disposal occurs in muscle. For this reason, gene expression profiling in human muscle from diabetics treated with troglitazone was used to identify genes important for TZD action and therefore treatment of diabetes and insulin resistance. […]
(§2) In the second study, samples were obtained from lean, obese, and diabetic individuals before and after a hyperinsulinemic euglycemic clamp. […] The gene expression profile for each individual was determined by hybridization of cRNA to custom synthesized Affymetrix chips.
(§3) Gene expression profile differences were calculated as follows. […] The raw data was analyzed by a statistical test to remove ‘outliers’. The mean ‘average difference score’ was then calculated from the average difference scores for all individuals in a particular treatment group. Genes were determined to be changed in three different comparisons by calculating the Students t test statistic between two conditions and selecting those with t less than or equal to 0.05. […]

[2] = test system: PRK1; experiment: Gene expression profiling (Affymetrix chips) of muscle from diabetics before/after troglitazone: PRK1 transcripts; conditions: PRK1 mRNA, Basal sample
Text: as §1, §2, §3

[3] = test system: Ceramidase; experiment: Gene expression profiling (Affymetrix chips) of muscle from diabetics before/after troglitazone: ceramidase transcripts; conditions: Ceramidase mRNA, Clamp sample
Text: as §1, §2, §3

[4] = test system: Endothelin A receptor; experiment: Gene expression profiling (Affymetrix chips) of muscle from diabetics before/after troglitazone: Endothelin A receptor transcripts; conditions: Endothelin A receptor mRNA, Clamp sample
Text: as §1, §2, §3

[5] = 3 months of Troglitazone treatment

SMILES: Cc1c(C)c2c(c(C)c1O)CCC(C)(COc1ccc(CC3SC(=O)NC3=O)cc1)O2 (centres unmarked) [Troglitazone, troglitazone]
- Fold Change (diabetic post tro/diabetic pre tro) [1, 5]: 1.51
- Diabetic Post-Trog Mean Expr ([1]; diabetic patients after 3 months of Troglitazone treatment (pre-Trog mean 518)): 781
- Fold Change (diabetic post tro/diabetic pre tro) [2, 5]: 0.54
- Diabetic Post-Trog Mean Expr ([2]; diabetic patients after 3 months of Troglitazone treatment (pre-Trog mean 1634)): 874
- Fold Change (diabetic post tro/diabetic pre tro) [3, 5]: 0.68
- Diabetic Post-Trog Mean Exp ([3]; diabetic patients after 3 months of Troglitazone treatment (pre-Trog mean 630)): 427
- Fold Change (diabetic post tro/diabetic pre tro) [4, 5]: 0.52
- Diabetic Post-Trog Mean Expr ([4]; diabetic patients after 3 months of Troglitazone treatment (pre-Trog mean 194)): 102
